Target: T1, HPK1 (Homo sapiens, UniProt Q92918)
T1 construct: purchased Invitrogen
Assay: HPK1 biochemical enzyme assay (microfluidic mobility shift, Caliper)
Conditions: 1.5 nM HPK1 (Invitrogen), 1 mM ATP, 30 min preincubation, 60 min at RT, top concentration 3 μM; read-out: HPK1 1000UMATP caliper IC50
Procedure: Example 20. HPK1 Biochemical Enzyme Assay
HPK1 biochemical enzyme assay: HPK1 enzyme inhibition was measured using a microfluidic mobility shift assay. Reactions were performed in a 384-well plate, containing 1.5 nM HPK1 (Invitrogen), in assay buffer (Cama Biosciences; pH 7.4). Test compounds were titrated in ten point curves (top final assay concentration 3 μM), and preincubated with enzyme/substrate mix for 30 min prior to initiation of the reaction by addition of ATP (1 mM final concentration) and substrate (1 μM final concentration; Carna Biosciences) diluted in assay buffer supplemented by MgCl2 (final assay concentration of 5 mM). Following 60 min incubation at RT, the reaction was terminated by addition of 60 μl/well termination buffer (Carna Biosciences) and signal determination using a Caliper EZ Reader (Perkin Elmer, UK).

T1 sequence (Q92918 whole entry): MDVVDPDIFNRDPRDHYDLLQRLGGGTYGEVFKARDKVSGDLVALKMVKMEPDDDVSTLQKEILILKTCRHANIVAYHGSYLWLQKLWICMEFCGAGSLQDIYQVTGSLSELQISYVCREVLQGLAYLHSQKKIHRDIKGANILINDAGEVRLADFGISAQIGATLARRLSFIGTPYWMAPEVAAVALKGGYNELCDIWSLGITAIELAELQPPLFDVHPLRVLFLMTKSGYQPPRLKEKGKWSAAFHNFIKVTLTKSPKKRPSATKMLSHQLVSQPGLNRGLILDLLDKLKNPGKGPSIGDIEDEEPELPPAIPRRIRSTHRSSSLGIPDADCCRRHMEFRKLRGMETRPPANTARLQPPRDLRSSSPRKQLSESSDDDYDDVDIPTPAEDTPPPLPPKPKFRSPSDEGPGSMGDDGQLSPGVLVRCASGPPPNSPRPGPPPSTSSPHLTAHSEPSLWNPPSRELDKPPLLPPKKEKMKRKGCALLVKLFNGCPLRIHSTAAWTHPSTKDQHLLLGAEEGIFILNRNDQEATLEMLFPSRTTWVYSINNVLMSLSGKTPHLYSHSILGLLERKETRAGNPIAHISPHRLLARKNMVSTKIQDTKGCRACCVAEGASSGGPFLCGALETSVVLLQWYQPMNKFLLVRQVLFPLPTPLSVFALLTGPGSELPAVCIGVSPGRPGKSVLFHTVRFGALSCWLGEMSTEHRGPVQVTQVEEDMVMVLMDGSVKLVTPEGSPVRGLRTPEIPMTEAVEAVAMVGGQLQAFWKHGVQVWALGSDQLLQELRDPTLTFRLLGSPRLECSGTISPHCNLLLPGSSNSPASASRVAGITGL

Structure (SMILES)	IC50 [µM]
CN1CCN(c2ccc(Nc3ccc(-c4ccnc(C#Cc5ccn(C)n5)c4)c4c3C(=O)NC4)nc2)CC1 [Compound I-67, 4-(2-((1-methyl-1H-pyrazol-3-yl)ethynyl)pyridin-4-yl)-7-((5-(4-methylpiperazin-1-yl)pyridin-2-yl)amino) isoindolin-1-one]	< 1
CN1CCN(c2ccc(Nc3ccc(-c4ccnc(N(C)C)c4)c4c3C(=O)NC4)nc2)CC1 [Compound I-50]	< 1
O=C1NCc2c(-c3ccccc3)ncc(Nc3ccc(N4CCNCC4)cn3)c21 [Compound I-11, 4-phenyl-7-[(5-piperazin-1-yl-2-pyridyl)amino]-2,3-dihydropyrrolo [3,4-c]pyridin-1-one]	1 to 5
CN1CCN(c2ccc(Nc3ccc(-c4ccccc4)c4c3C(=O)NC4)nc2)CC1 [Compound I-29, 7-[[5-(4-methylpiperazin-1-yl)-2-pyridyl]amino]-4-phenyl-isoindolin-1-one]	< 1
CN1CCN(c2ccc(Nc3cnc(-c4ccnc(N(C)C)c4)c4c3C(=O)NC4)nc2)CC1 [Compound I-58, 4-(2-(dimethylamino)pyridin-4-yl)-7-((5-(4-methylpiperazin-1-yl)pyridin-2-yl)amino)-2,3-dihydro-1H-pyrrolo[3,4-c]pyridin-1-one]	1 to 5
CN1CCN(c2ccc(Nc3ccc(-c4ccnc(C5(C#N)CCOCC5)c4)c4c3C(=O)NC4)nc2)CC1 [Compound I-46, 4-[4-[7-[[5-(4-methylpiperazin-1-yl)-2-pyridyl]amino]-1-oxo-isoindolin-4-yl]-2-pyridyl] tetrahydropyran-4-carbonitrile]	< 1
NC(=O)c1ncc(Nc2ccc(N3CCNCC3)cn2)c2c1CNC2=O [Compound I-8, 1-oxo-7-[(5-piperazin-1-yl-2-pyridyl)amino]-2,3-dihydropyrrolo [3,4-c]pyridine-4-carboxamide]	1 to 5
CN1CCN(c2ccc(Nc3ccc(-c4ccnc(C#CC5CCCO5)c4)c4c3C(=O)NC4)nc2)CC1 (stereo not drawn) [Compound I-68]	< 1
Cn1cnc(-c2ccccc2)c1-c1ccc(Nc2ccc(N3CCNCC3)cn2)c2c1CNC2=O [Compound I-79, 4-(1-methyl-4-phenyl-1H-imidazol-5-yl)-7-((5-(piperazin-1-yl)pyridin-2-yl)amino) isoindolin-1-one]	< 1
O=C1NCc2c(-c3c(F)cccc3F)ncc(Nc3ccc(N4CCNCC4)cn3)c21 [Compound I-3, 4-(2,6-difluorophenyl)-7-[(5-piperazin-1-yl-2-pyridyl)amino]-2,3-dihydropyrrolo [3,4-c]pyridin-1-one]	1 to 5
O=C1NCc2c(-c3cncn3-c3ccccc3)ccc(Nc3ccc(N4CCNCC4)cn3)c21 [Compound I-75, 4-(1-phenyl-1H-imidazol-5-yl)-7-((5-(piperazin-1-yl)pyridin-2-yl)amino) isoindolin-1-one]	< 1
CN1CCN(c2ccc(Nc3cnc(-c4cc[nH]c4)c4c3C(=O)NC4)nc2)CC1 [Compound I-23, 7-[[5-(4-methylpiperazin-1-yl)-2-pyridyl]amino]-4-(1H-pyrrol-3-yl)-2,3-dihydropyrrolo [3,4-c]pyridin-1-one]	< 1
O=C1NCc2c(-c3ccncc3)ccc(Nc3cc(C4CCOC4)n[nH]3)c21 (stereo not drawn) [Compound I-36, 4-(4-pyridyl)-7-[(3-tetrahydrofuran-3-yl-1H-pyrazol-5-yl)amino] isoindolin-1-one]	< 1
CN1CCN(c2ccc(Nc3cnc(-c4ccncc4F)c4c3C(=O)NC4)nc2)CC1 [Compound I-22, 4-(3-fluoro-4-pyridyl)-7-[[5-(4-methylpiperazin-1-yl)-2-pyridyl]amino]-2,3-dihydropyrrolo [3,4-c]pyridin-1-one]	1 to 5
CN1CCN(c2ccc(Nc3ccc(-c4cc(C5CCOCC5)ncn4)c4c3C(=O)NC4)nc2)CC1 [Compound I-69]	< 1
CN1CCN(c2ccc(Nc3ccc(-c4ccnc(N5CCC6(CCCO6)CC5)c4)c4c3C(=O)NC4)nc2)CC1 [Compound I-38, 7-[[5-(4-methylpiperazin-1-yl)-2-pyridyl]amino]-4-[2-(1-oxa-8-azaspiro[4. 5]decan-8-yl)-4-pyridyl] isoindolin-1-one]	1 to 5
O=C1NCc2c(C3CCOCC3)ncc(Nc3ccc(N4CCNCC4)cn3)c21 [Compound I-2, 7-[(5-piperazin-1-yl-2-pyridyl)amino]-4-tetrahydropyran-4-yl-2,3-dihydropyrrolo [3,4-c]pyridin-1-one]	1 to 5

Structure (SMILES)	IC50 [µM]
CN1CCN(c2ccc(Nc3cnc(-c4cncn4C)c4c3C(=O)NC4)nc2)CC1 [Compound I-73, 4-(1-methyl-1H-imidazol-5-yl)-7-((5-(4-methylpiperazin-1-yl)pyridin-2-yl)amino)-2,3-dihydro-1H-pyrrolo[3,4-c]pyridin-1-one]	< 1
CN1CCN(c2ccc(Nc3ccc(-c4ccnc(C5CCOC5)c4)c4c3C(=O)NC4)nc2)CC1 (stereo not drawn) [Compound I-76]	1 to 5
CN1CCN(c2ccc(Nc3ccc(-c4cccnc4)c4c3C(=O)NC4)nc2)CC1 [Compound I-30, 7-[[5-(4-methylpiperazin-1-yl)-2-pyridyl]amino]-4-(3-pyridyl) isoindolin-1-one]	< 1
CC#Cc1cc(-c2ccc(Nc3ccc(N4CCN(C)CC4)cn3)c3c2CNC3=O)ccn1 [Compound I-60, 7-((5-(4-methylpiperazin-1-yl)pyridin-2-yl)amino)-4-(2-(prop-1-yn-1-yl)pyridin-4-yl)isoindolin-1-one]	< 1
COc1cccc(-c2ncc(Nc3ccc(N4CCN(C)CC4)cn3)c3c2CNC3=O)c1OC [Compound I-19, 4-(2,3-dimethoxyphenyl)-7-[[5-(4-methylpiperazin-1-yl)-2-pyridyl]amino]-2,3-dihydropyrrolo [3,4-c]pyridin-1-one]	1 to 5
CN1CCN(c2ccc(Nc3ccc(-c4ccnc(N5CCC6(CCNC6)CC5)c4)c4c3C(=O)NC4)nc2)CC1 [Compound I-42, 4-[2-(2,8-diazaspiro [4.5]decan-8-yl)-4-pyridyl]-7-[[5-(4-methylpiperazin-1-yl)-2-pyridyl]amino] isoindolin-1-one]	< 1
CN1CCN(c2ccc(Nc3ccc(-c4ccnc(C(C)(C)C#N)c4)c4c3C(=O)NC4)nc2)CC1 [Compound I-35, 2-methyl-2-[4-[7-[[5-(4-methylpiperazin-1-yl)-2-pyridyl]amino]-1-oxo-isoindolin-4-yl]-2-pyridyl] propanenitrile]	< 1
O=C1NCc2c(-n3ccnc3)ccc(Nc3ccc(N4CCNCC4)cn3)c21 [Compound I-81, 4-(1H-imidazol-1-yl)-7-((5-(piperazin-1-yl)pyridin-2-yl)amino) isoindolin-1-one]	1 to 5
CCN1CCN(Cc2ccc(NC(=O)c3ccc(-c4ncc(Nc5ccc(N6CCN(C)CC6)cn5)c5c4CNC5=O)cc3)cc2C(F)(F)F)CC1 [Compound I-24]	< 1
CN1CCN(c2ccc(Nc3ccc(-c4ccnnc4)c4c3C(=O)NC4)nc2)CC1 [Compound I-59, 7-((5-(4-methylpiperazin-1-yl)pyridin-2-yl)amino)-4-(pyridazin-4-yl)isoindolin-1-one]	< 1
CN1CCN(c2ccc(Nc3ccc(-c4ccnc(OCC(=O)N5CCCCC5)c4)c4c3C(=O)NC4)nc2)CC1 [Compound I-39, 7-[[5-(4-methylpiperazin-1-yl)-2-pyridyl]amino]-4-[2-[2-oxo-2-(1-piperidyl)ethoxy]-4-pyridyl] isoindolin-1-one]	< 1
Cn1cncc1-c1ccc(Nc2ccc(N3CCNCC3)cn2)c2c1CNC2=O [Compound I-71, 4-(1-methyl-1H-imidazol-5-yl)-7-((5-(piperazin-1-yl)pyridin-2-yl)amino) isoindolin-1-one]	< 1
CN1CCN(c2ccc(Nc3ccc(-c4ccnc(N5CC6CCC(C5)O6)n4)c4c3C(=O)NC4)nc2)CC1 [Compound I-82, 4-(2-(8-oxa-3-azabicyclo [3.2.1]octan-3-yl)pyrimidin-4-yl)-7-((5-(4-methylpiperazin-1-yl)pyridin-2-yl)amino) isoindolin-1-one]	1 to 5
O=C1NCc2c(-c3ccncc3)ccc(Nc3ccc(N4CCNCC4)cn3)c21 [Compound I-27, 7-[(5-piperazin-1-yl-2-pyridyl)amino]-4-(4-pyridyl) isoindolin-1-one]	< 1
CNc1cc(-c2ccc(Nc3ccc(N4CCN(C)CC4)cn3)c3c2CNC3=O)ccn1 [Compound I-52, 4-[2-(methylamino)-4-pyridyl]-7-[[5-(4-methylpiperazin-1-yl)-2-pyridyl]amino] isoindolin-1-one]	< 1
O=C1NCc2c(N3CCOCC3)ncc(Nc3ccc(N4CCNCC4)cn3)c21 [Compound I-16, 4-morpholino-7-[(5-piperazin-1-yl-2-pyridyl)amino]-2,3-dihydropyrrolo [3,4-c]pyridin-1-one]	1 to 5
